Legend:
HiBiT-BRM = biological target: T1, HiBiT-BRM (Homo sapiens, UniProt P51531); test: HiBiT-BRM cell-based degradation assay (Nano-Glo HiBiT Lytic Detection); conditions: HeLa cells expressing HiBiT-BRM, 24 h; for DC50: read-out: BRM HiBit Degradation IC50
T1 construct: expressed in transfected cells
How it was run: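 HeLa cells stably expressing HiBiT-tagged BRM were treated for 24 h, then lysed with LgBiT-containing Nano-Glo reagent and luminescence read. % degradation scaled between DMSO (high control) and 2 μM reference BRM/BRG1 degrader (low control).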

HiBit-BRG1 = biological target: T2, HiBit-BRG1 (Homo sapiens, UniProt P51532); test: HiBit-BRG1 cell-based degradation assay (Nano-Glo HiBiT Lytic Detection); conditions: HeLa cells expressing HiBit-BRG1 and LgBit, 24 h; for DC50: read-out: BRG1 HiBit Degradation IC50; for Dmax: read-out: BRG1 HiBit Degradation Maximum (%)
T2 construct: expressed in transfected cells
How it was run: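 Seed 5000 HeLa HiBit-BRG1/LgBit cells per well; treat 24 h; equilibrate 15 min at room temperature; add Nano-Glo HiBiT lytic reagent, shake 10 min, read luminescence. Percent degradation is scaled between DMSO and 2 μM reference degrader wells.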

T2 sequence (P51532 whole entry): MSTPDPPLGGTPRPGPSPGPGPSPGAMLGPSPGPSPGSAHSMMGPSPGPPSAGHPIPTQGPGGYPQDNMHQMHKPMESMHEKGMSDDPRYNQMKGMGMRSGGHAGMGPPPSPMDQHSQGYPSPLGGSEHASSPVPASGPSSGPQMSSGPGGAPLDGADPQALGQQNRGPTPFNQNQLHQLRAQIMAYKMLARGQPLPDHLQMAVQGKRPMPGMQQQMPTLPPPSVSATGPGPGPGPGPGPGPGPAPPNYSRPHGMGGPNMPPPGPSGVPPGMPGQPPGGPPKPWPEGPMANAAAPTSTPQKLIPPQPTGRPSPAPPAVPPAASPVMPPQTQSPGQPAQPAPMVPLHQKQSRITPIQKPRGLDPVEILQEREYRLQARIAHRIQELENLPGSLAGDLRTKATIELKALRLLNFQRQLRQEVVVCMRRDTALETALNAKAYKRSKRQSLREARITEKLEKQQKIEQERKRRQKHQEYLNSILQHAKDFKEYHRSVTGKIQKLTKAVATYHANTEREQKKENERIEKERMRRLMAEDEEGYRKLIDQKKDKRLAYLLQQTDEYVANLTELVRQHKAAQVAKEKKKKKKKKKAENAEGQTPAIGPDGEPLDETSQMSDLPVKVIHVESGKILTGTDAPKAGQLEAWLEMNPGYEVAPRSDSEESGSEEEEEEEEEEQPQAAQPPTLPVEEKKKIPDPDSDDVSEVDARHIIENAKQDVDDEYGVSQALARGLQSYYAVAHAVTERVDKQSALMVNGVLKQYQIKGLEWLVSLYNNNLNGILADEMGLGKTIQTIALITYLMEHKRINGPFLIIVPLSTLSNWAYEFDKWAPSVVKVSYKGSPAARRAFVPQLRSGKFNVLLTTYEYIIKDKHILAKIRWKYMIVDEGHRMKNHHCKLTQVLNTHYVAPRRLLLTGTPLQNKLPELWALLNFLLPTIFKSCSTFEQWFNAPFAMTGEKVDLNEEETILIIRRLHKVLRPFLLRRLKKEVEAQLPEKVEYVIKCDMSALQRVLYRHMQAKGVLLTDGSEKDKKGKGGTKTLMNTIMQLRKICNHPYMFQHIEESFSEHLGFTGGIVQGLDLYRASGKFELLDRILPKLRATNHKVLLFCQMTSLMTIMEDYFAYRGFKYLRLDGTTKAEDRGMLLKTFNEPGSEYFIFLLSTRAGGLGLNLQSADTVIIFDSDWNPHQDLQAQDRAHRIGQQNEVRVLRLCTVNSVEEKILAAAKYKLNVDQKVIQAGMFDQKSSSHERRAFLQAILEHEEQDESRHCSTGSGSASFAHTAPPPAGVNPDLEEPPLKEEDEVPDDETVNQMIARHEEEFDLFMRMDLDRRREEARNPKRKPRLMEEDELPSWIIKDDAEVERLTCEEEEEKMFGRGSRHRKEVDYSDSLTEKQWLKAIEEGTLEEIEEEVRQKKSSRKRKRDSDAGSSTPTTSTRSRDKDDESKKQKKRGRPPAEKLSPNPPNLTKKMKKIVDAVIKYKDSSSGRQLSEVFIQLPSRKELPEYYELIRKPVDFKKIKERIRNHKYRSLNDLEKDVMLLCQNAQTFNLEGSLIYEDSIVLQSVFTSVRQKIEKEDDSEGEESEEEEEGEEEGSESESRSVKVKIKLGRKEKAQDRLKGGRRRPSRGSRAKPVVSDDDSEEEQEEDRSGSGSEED
T1 sequence (P51531 whole entry): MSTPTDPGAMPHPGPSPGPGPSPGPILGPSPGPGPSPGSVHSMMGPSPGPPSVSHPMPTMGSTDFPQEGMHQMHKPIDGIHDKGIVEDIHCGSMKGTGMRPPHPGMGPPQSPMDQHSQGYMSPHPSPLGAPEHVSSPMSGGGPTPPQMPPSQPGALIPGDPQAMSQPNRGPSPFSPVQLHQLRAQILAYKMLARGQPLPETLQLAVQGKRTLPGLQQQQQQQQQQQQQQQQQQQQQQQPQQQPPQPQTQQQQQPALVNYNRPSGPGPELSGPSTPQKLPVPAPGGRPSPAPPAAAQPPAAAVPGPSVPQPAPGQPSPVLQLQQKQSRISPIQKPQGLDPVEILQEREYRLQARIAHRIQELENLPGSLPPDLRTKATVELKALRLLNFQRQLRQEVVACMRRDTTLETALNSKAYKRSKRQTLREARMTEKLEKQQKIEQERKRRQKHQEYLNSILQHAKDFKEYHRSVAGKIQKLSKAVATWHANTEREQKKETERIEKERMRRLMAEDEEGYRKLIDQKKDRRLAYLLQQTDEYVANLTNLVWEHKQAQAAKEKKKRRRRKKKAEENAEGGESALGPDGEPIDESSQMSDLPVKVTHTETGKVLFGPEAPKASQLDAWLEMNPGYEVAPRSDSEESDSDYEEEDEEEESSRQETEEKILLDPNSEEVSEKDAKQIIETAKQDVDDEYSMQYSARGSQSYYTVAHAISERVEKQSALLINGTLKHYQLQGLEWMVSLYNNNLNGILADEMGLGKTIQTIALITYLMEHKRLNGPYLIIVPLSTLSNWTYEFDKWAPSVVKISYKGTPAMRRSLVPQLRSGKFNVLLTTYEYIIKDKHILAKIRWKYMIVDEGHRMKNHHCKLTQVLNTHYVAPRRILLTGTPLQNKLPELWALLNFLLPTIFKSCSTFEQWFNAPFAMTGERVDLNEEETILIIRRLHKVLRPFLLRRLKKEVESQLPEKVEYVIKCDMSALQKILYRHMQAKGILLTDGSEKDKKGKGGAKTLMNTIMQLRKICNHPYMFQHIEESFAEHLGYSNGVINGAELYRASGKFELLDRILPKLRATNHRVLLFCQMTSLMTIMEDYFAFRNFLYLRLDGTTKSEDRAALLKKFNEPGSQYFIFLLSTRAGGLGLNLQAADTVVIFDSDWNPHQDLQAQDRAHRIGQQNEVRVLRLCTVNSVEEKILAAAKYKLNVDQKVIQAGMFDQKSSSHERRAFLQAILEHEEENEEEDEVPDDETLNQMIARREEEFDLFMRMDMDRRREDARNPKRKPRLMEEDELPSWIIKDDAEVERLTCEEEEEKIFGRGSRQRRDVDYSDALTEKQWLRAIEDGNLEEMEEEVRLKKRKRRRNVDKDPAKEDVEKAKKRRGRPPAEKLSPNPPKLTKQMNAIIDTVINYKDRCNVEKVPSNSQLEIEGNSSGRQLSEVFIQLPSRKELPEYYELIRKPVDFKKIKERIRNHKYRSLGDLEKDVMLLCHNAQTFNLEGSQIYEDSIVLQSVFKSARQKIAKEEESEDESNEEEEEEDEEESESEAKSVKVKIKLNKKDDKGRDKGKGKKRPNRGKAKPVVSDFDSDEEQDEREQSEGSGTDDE

Row | SMILES | DC50 (HiBiT-BRM) | DC50 (HiBit-BRG1) | Dmax (HiBit-BRG1) | BRM HiBit Degradation Maximum (%) (HiBiT-BRM)
1 | Cc1ncsc1-c1ccc(CNC(=O)[C@@H]2C[C@@H](O)CN2C(=O)[C@@H](NC(=O)CCN2CC(C3CN(C(=O)c4ccc(CCOc5cc(-c6ccccc6O)nnc5N)cc4)C3)C2)C(C)(C)C)cc1 [Compound 224, (2S,4R)-1-((S)-2-(3-(1′-(4-(2-((3-amino-6-(2-hydroxyphenyl)pyridazin-4-yl)oxy)ethyl)benzoyl)-[3,3′-biazetidin]-1-yl)propanamido)-3,3-dimethylbutanoyl)-4-hydroxy-N-(4-(4-methylthiazol-5-yl)benzyl)pyrrolidine-2-carboxamide] | > 1000 nM | > 1000 nM | < 50% | C (“C” indicates maximum degradation <50%)
2 | Cc1ncsc1-c1ccc(CNC(=O)[C@@H]2C[C@@H](O)CN2C(=O)[C@@H](NC(=O)CCN2C[C@H]3CC[C@@H](C2)N3C(=O)c2ccc(CCOc3cc(-c4ccccc4O)nnc3N)cc2)C(C)(C)C)cc1 [Compound 226, (2S,4R)-1-((2S)-2-(3-(8-(4-(2-((3-amino-6-(2-hydroxyphenyl)pyridazin-4-yl)oxy)ethyl)benzoyl)-3,8-diazabicyclo[3.2.1]octan-3-yl)propanamido)-3,3-dimethylbutanoyl)-4-hydroxy-N-(4-(4-methylthiazol-5-yl)benzyl)pyrrolidine-2-carboxamide] | > 1000 nM | > 1000 nM | < 50% | B (“B” indicates maximum degradation ≥50%)

Now from value to compound, other results behind:

Row | DC50 (HiBiT-BRM) | DC50 (HiBit-BRG1) | Dmax (HiBit-BRG1) | SMILES | BRM HiBit Degradation Maximum (%) (HiBiT-BRM)
3 | > 100 nM | > 100 nM | > 75% | Cc1ncsc1-c1ccc([C@H](C)NC(=O)[C@@H]2C[C@@H](O)CN2C(=O)[C@@H](c2cc(OCCN3CC4CN(C(=O)c5ccc(CCOc6cc(-c7ccccc7O)nnc6N)cc5)CC43)no2)C(C)C)cc1 (stereo partly drawn) [Compound 225, (2S,4R)-1-((2R)-2-(3-(2-(3-(4-(2-((3-amino-6-(2-hydroxyphenyl)pyridazin-4-yl)oxy)ethyl)benzoyl)-3,6-diazabicyclo[3.2.0]heptan-6-yl)ethoxy)isoxazol-5-yl)-3-methylbutanoyl)-4-hydroxy-N-((S)-1-(4-(4-methylthiazol-5-yl)phenyl)ethyl)pyrrolidine-2-carboxamide] | A (“A” indicates maximum degradation ≥75%)
4 | > 10 nM | > 100 nM | > 75% | Cc1ncsc1-c1ccc([C@H](C)NC(=O)[C@@H]2C[C@@H](O)CN2C(=O)[C@@H](NC(=O)CCCCCCCCCCCCCCCC(=O)N(C)Cc2ccc(CCOc3cc(-c4ccccc4O)nnc3N)cc2)C(C)(C)C)cc1 [Compound 227, N1-(4-(2-((3-amino-6-(2-hydroxyphenyl)pyridazin-4-yl)oxy)ethyl)benzyl)-N17-((S)-1-((2S,4R)-4-hydroxy-2-(((S)-1-(4-(4-methylthiazol-5-yl)phenyl)ethyl)carbamoyl)pyrrolidin-1-yl)-3,3-dimethyl-1-oxobutan-2-yl)-N1-methylheptadecanediamide] | A (“A” indicates maximum degradation ≥75%)
5 | > 100 nM | > 100 nM | > 75% | Cc1ncsc1-c1ccc(CNC(=O)[C@@H]2C[C@@H](O)CN2C(=O)[C@@H](NC(=O)CCCCCCCCCCCCCCCC(=O)N(C)Cc2ccc(CCOc3cc(-c4ccccc4O)nnc3N)cc2)C(C)(C)C)cc1 [Compound 228, N1-(4-(2-((3-amino-6-(2-hydroxyphenyl)pyridazin-4-yl)oxy)ethyl)benzyl)-N17-((S)-1-((2S,4R)-4-hydroxy-2-((4-(4-methylthiazol-5-yl)benzyl)carbamoyl)pyrrolidin-1-yl)-3,3-dimethyl-1-oxobutan-2-yl)-N1-methylheptadecanediamide] | A (“A” indicates maximum degradation ≥75%)
